Converted amounts (≈) assume the structure as drawn.
system: S. aureus ATCC 700699; assay: MIC by microdilution, S. aureus ATCC 700699; format: cell-based, Staphylococcus aureus; details: Staphylococcus aureus, ATCC700699; S. aureus ATCC 700699, resistant to levofloxacin; read-out: MIC
Method: (§1) Compounds were tested against Gram-positive and Gram-negative bacteria, including sensitive or drug resistant strains from American Type Culture Collection (ATCC), as well as resistant clinical isolates from the culture collection of the Laboratory for Control of Hospital Infections (Sechenov University, Moscow, Russia). Collection cultures of Gram-positive bacteria: Staphylococcus aureus ATCC 25923, Staphylococcus aureus ATCC 3798, Staphylococcus aureus ATCC 700,699 and clinical isolates of Gram-positive bacteria: Staphylococcus aureus 5, Staphylococcus aureus 10, Staphylococcus aureus 100 KS, Staphylococcus epidermidis 533, Enterococcus faecium 569 and collection cultures of Gram-negative bacteria: Escherichia coli ATCC 25922, Klebsiella pneumoniae ATCC 13883, Salmonella cholerasuis ATCC 14,028 were used.
(§2) For the cultivation of the strains, various nutrient media were used: Trypticase Soy Agar BBL for Staphylococcus sp., E. coli, K. pneumoniae, S. cholerasuis and Columbia Agar Base BBL for the cultivation of Enterococcus sp. Cultures grown on appropriate nutrient media at 35 °C for 1 day were used to set up experiments. For determination of the antibacterial action Mueller-Hinton (Acumedia, Baltimore, MD, USA) liquid medium was used. The minimum inhibitory concentrations (MIC) were determined by the microdilution method in 96 well sterile plates in a cation-adjusted Müller-Hinton medium in accordance with the requirements of the Institute of Clinical and Laboratory Standards (CLSI/NCCLS). MIC was defined as the minimum drug concentration that completely prevents the growth of the test organism.

Row | MIC [µg/mL] | Structure (SMILES)
1 | > 64 | OCCCn1cc([C+](c2cn(CCCO)c3ccccc23)c2cn(CCCO)c3ccccc23)c2ccccc21.[Cl-] [8b, tris(1-(3-Hydroxypropyl)-1H-indol-3-yl)methylium chloride]
2 | 16 (≈ 44.3 µM) | C[C@H]1COc2c(N3CCN(C)CC3)c(F)cc3c(=O)c(C(=O)O)cn1c23 [Lf, levofloxacin, reference compound]

system: P. aeruginosa ATCC 27853; assay: MIC by microdilution, P. aeruginosa ATCC 27853; format: cell-based; details: Pseudomonas aeruginosa, ATCC27853; P. aeruginosa ATCC 27853; read-out: MIC
Method: as §2

Row | MIC [µg/mL] | Structure (SMILES)
3 | > 64 | OCCCn1cc([C+](c2cn(CCCO)c3ccccc23)c2cn(CCCO)c3ccccc23)c2ccccc21.[Cl-] [8b, tris(1-(3-Hydroxypropyl)-1H-indol-3-yl)methylium chloride]
4 | 1 (≈ 2.77 µM) | C[C@H]1COc2c(N3CCN(C)CC3)c(F)cc3c(=O)c(C(=O)O)cn1c23 [Lf, levofloxacin, reference compound]

system: E. faecium 569; assay: MIC by microdilution, E. faecium 569; format: cell-based, Enterococcus faecium; details: Enterococcus faecium; E. faecium 569, resistant to cefuroxime, clindamycin, gentamycin, vancomycin, doxycycline; read-out: MIC
Method: as §1, §2

Row | MIC [µg/mL] | Structure (SMILES)
5 | 32 | OCCCn1cc([C+](c2cn(CCCO)c3ccccc23)c2cn(CCCO)c3ccccc23)c2ccccc21.[Cl-] [8b, tris(1-(3-Hydroxypropyl)-1H-indol-3-yl)methylium chloride]
6 | 1 (≈ 2.77 µM) | C[C@H]1COc2c(N3CCN(C)CC3)c(F)cc3c(=O)c(C(=O)O)cn1c23 [Lf, levofloxacin, reference compound]

system: E. coli ATCC 25922; assay: MIC by microdilution, E. coli ATCC 25922; format: cell-based, Escherichia coli; details: Escherichia coli, ATCC25922; E. coli ATCC 25922; read-out: MIC
Method: as §1, §2

Row | MIC [µg/mL] | Structure (SMILES)
7 | > 64 | OCCCn1cc([C+](c2cn(CCCO)c3ccccc23)c2cn(CCCO)c3ccccc23)c2ccccc21.[Cl-] [8b, tris(1-(3-Hydroxypropyl)-1H-indol-3-yl)methylium chloride]
8 | 0.06 (≈ 0.166 µM) | C[C@H]1COc2c(N3CCN(C)CC3)c(F)cc3c(=O)c(C(=O)O)cn1c23 [Lf, levofloxacin, reference compound]

system: S. aureus ATCC 3798; assay: MIC by microdilution, S. aureus ATCC 3798; format: cell-based; details: Staphylococcus aureus, ATCC3798; S. aureus ATCC 3798, multiresistant incl. ciprofloxacin, levofloxacin; read-out: MIC
Method: as §1, §2

Row | MIC [µg/mL] | Structure (SMILES)
9 | 16 | OCCCn1cc([C+](c2cn(CCCO)c3ccccc23)c2cn(CCCO)c3ccccc23)c2ccccc21.[Cl-] [8b, tris(1-(3-Hydroxypropyl)-1H-indol-3-yl)methylium chloride]
10 | 32 (≈ 88.6 µM) | C[C@H]1COc2c(N3CCN(C)CC3)c(F)cc3c(=O)c(C(=O)O)cn1c23 [Lf, levofloxacin, reference compound]

system: K. pneumoniae ATCC 13883; assay: MIC by microdilution, K. pneumoniae ATCC 13883; format: cell-based; details: Klebsiella pneumoniae, ATCC13883; K. pneumoniae ATCC 13883; read-out: MIC
Method: as §1, §2

Row | MIC [µg/mL] | Structure (SMILES)
11 | > 64 | OCCCn1cc([C+](c2cn(CCCO)c3ccccc23)c2cn(CCCO)c3ccccc23)c2ccccc21.[Cl-] [8b, tris(1-(3-Hydroxypropyl)-1H-indol-3-yl)methylium chloride]
12 | 0.25 (≈ 0.692 µM) | C[C@H]1COc2c(N3CCN(C)CC3)c(F)cc3c(=O)c(C(=O)O)cn1c23 [Lf, levofloxacin, reference compound]

system: not given; assay: not given; details: substances with a known LogPow used for HPLC calibration; cited from earlier work

Row | Structure (SMILES) | LogPow of calibration substances
13 | Nc1ccc(Cl)cc1 [p-chloroaniline] | 1.8
14 | Nc1ccccc1 [aniline] | 0.9
15 | c1ccc(Nc2ccccc2)cc1 [diphenylamine] | 3.4
16 | c1ccc(N(c2ccccc2)c2ccccc2)cc1 [triphenylamine] | 5.7

system: S. aureus 5; assay: MIC by microdilution, S. aureus 5; format: cell-based; details: Staphylococcus aureus; S. aureus 5, methicillin resistant (MRSA) clinical isolate; read-out: MIC
Method: as §1, §2

Row | MIC [µg/mL] | Structure (SMILES)
17 | 16 | OCCCn1cc([C+](c2cn(CCCO)c3ccccc23)c2cn(CCCO)c3ccccc23)c2ccccc21.[Cl-] [8b, tris(1-(3-Hydroxypropyl)-1H-indol-3-yl)methylium chloride]
18 | 0.25 (≈ 0.692 µM) | C[C@H]1COc2c(N3CCN(C)CC3)c(F)cc3c(=O)c(C(=O)O)cn1c23 [Lf, levofloxacin, reference compound]

system: S. cholerasuis ATCC 14028; assay: MIC by microdilution, S. cholerasuis ATCC 14028; format: cell-based; details: Salmonella, ATCC14028; S. cholerasuis ATCC 14028; read-out: MIC
Method: as §1, §2

Row | Structure (SMILES) | MIC [µg/mL]
19 | OCCCn1cc([C+](c2cn(CCCO)c3ccccc23)c2cn(CCCO)c3ccccc23)c2ccccc21.[Cl-] [8b, tris(1-(3-Hydroxypropyl)-1H-indol-3-yl)methylium chloride] | > 64
20 | C[C@H]1COc2c(N3CCN(C)CC3)c(F)cc3c(=O)c(C(=O)O)cn1c23 [Lf, levofloxacin, reference compound] | 0.13 (≈ 0.36 µM)

system: S. aureus ATCC 25923; assay: MIC by microdilution, S. aureus ATCC 25923; format: cell-based; details: Staphylococcus aureus, ATCC25923; S. aureus ATCC 25923, sensitive to all antibiotics; read-out: MIC
Method: as §1, §2

Row | MIC [µg/mL] | Structure (SMILES)
21 | 32 | OCCCn1cc([C+](c2cn(CCCO)c3ccccc23)c2cn(CCCO)c3ccccc23)c2ccccc21.[Cl-] [8b, tris(1-(3-Hydroxypropyl)-1H-indol-3-yl)methylium chloride]
22 | 0.25 (≈ 0.692 µM) | C[C@H]1COc2c(N3CCN(C)CC3)c(F)cc3c(=O)c(C(=O)O)cn1c23 [Lf, levofloxacin, reference compound]

system: not listed separately; assay: Determination of lipophilicity, LogPow by HPLC method; format: physicochemical; details: experimental, pH 7.4
Excerpt: We used the partition coefficient as an indicator of lipophilicity. The partition coefficient (P) is defined as the ratio of the equilibrium solute concentrations in a two-phase system of immiscible solvents. The most common in practice is the octanol-water (Pow) system. The partition coefficient is usually represented as a decimal logarithm (LogPow). It can be measured in several ways. A most advanced, accurate, and less time-consuming is the HPLC method for determining Pow using high-performance liquid chromatography. HPLC is performed on an analytical column with a solid phase containing long hydrocarbon chains chemically bound to silica gel. The retention time on such a column (Rt) is directly related to the partition coefficient Pow. The most informative in our case was the partition coefficient at a physiological pH value of 7.4. It was at this pH that the main biological experiments with the studied substances were carried out, namely tests of antimicrobial activity and cytotoxicity. HPLC was performed on a Shimadzu LC-20AD system using Kromasil-100-5-C18 (Akzo-Nobel) column, 4.6 × 250 mm, 20 °C temperature, UV detection, mobile phase A—0.2% HCOONH4), mobile phase B-MeCN, (pH 7.4), fl-1 mL/min., loop 20 mkl. After calibration using substances with a known LogPow, it is possible to recalculate Rt to LogPow. For calibration, we used aniline (LogPow 0.9), p-chloroaniline (LogPow 1.8), diphenylamine (LogPow 3.4), triphenylamine (LogPow 5.7).

Row | LogPow | Structure (SMILES)
23 | 1.2 | OCCCn1cc([C+](c2cn(CCCO)c3ccccc23)c2cn(CCCO)c3ccccc23)c2ccccc21.[Cl-] [8b, tris(1-(3-Hydroxypropyl)-1H-indol-3-yl)methylium chloride]

system: S. aureus 100 KC; assay: MIC by microdilution, S. aureus 100 KC; format: cell-based; details: Staphylococcus aureus; S. aureus 100 KC, methicillin resistant (MRSA) clinical isolate; read-out: MIC
Method: as §1, §2

Row | MIC [µg/mL] | Structure (SMILES)
24 | 16 | OCCCn1cc([C+](c2cn(CCCO)c3ccccc23)c2cn(CCCO)c3ccccc23)c2ccccc21.[Cl-] [8b, tris(1-(3-Hydroxypropyl)-1H-indol-3-yl)methylium chloride]
25 | 32 (≈ 88.6 µM) | C[C@H]1COc2c(N3CCN(C)CC3)c(F)cc3c(=O)c(C(=O)O)cn1c23 [Lf, levofloxacin, reference compound]

system: S. aureus 10; assay: MIC by microdilution, S. aureus 10; format: cell-based; details: Staphylococcus aureus; clinical isolate S. aureus 10, sensitive to all antibiotics; read-out: MIC
Method: as §1, §2

Row | MIC [µg/mL] | Structure (SMILES)
26 | 8 | OCCCn1cc([C+](c2cn(CCCO)c3ccccc23)c2cn(CCCO)c3ccccc23)c2ccccc21.[Cl-] [8b, tris(1-(3-Hydroxypropyl)-1H-indol-3-yl)methylium chloride]
27 | 0.13 (≈ 0.36 µM) | C[C@H]1COc2c(N3CCN(C)CC3)c(F)cc3c(=O)c(C(=O)O)cn1c23 [Lf, levofloxacin, reference compound]

system: S. epidermidis 533; assay: MIC by microdilution, S. epidermidis 533; format: cell-based; details: Staphylococcus epidermidis; S. epidermidis 533, resistant to gentamicin; read-out: MIC
Method: as §1, §2

Row | MIC [µg/mL] | Structure (SMILES)
28 | 32 | OCCCn1cc([C+](c2cn(CCCO)c3ccccc23)c2cn(CCCO)c3ccccc23)c2ccccc21.[Cl-] [8b, tris(1-(3-Hydroxypropyl)-1H-indol-3-yl)methylium chloride]
29 | 0.5 (≈ 1.38 µM) | C[C@H]1COc2c(N3CCN(C)CC3)c(F)cc3c(=O)c(C(=O)O)cn1c23 [Lf, levofloxacin, reference compound]
